US9815832B2 (priority 2013, dated 2017)
Structures can show the parent of a compound that is named as a salt.

Molecular target: human recombinant PDE4B (Homo sapiens (Human), UniProt Q07343, S133E/S654A/S659A/S661A)
Conditions: read-out: Human PDE4B FL
Procedure: Reactions are incubated for 30 min at 25° C. The addition of 20 μL of 8 mg/mL yitrium silicate SPA beads (PerkinElmer) stops the reaction. The plates are sealed (TopSeal, PerkinElmer) and the beads are allowed to settle for 8 hrs, after which they are read on the Trilux Microbeta overnight.

Sequence of human recombinant PDE4B (Q07343 122-736 S133E/S654A/S659A/S661A): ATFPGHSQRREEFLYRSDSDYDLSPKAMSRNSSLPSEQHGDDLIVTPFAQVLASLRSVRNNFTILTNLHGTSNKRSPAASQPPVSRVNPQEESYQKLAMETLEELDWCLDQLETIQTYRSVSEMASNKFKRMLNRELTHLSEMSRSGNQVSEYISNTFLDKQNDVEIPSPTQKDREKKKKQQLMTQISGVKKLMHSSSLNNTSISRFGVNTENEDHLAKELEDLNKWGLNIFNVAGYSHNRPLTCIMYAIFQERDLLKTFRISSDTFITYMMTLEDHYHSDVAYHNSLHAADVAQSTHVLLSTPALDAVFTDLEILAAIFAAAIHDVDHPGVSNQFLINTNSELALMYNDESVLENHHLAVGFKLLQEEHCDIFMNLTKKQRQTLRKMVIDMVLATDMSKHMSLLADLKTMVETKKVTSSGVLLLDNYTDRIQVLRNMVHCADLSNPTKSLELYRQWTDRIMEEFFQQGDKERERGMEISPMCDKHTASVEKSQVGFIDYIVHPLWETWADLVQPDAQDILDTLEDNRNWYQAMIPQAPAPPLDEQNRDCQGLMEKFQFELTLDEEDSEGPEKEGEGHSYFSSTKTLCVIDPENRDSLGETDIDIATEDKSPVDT

Structure (SMILES)	IC50
O=C(NC1CC1)c1nc2cccnc2n1-c1ccc2ncsc2c1 [Example 71, 3-(1,3-Benzothiazol-6-yl)-N-cyclopropyl-3H-imidazo[4,5-b]pyridine-2-carboxamide]	0.155 µM
COc1ccc(-n2c(C(=O)NC3CC3)nc3cccnc32)c(C)c1 [Example 89, N-Cyclopropyl-3-(4-methoxy-2-methylphenyl)-3H-imidazo[4,5-b]pyridine-2-carboxamide]	3.52 µM
COc1cncc(-n2c(C(=O)NC3CC3)nc3cccnc32)c1 [Example 83, N-Cyclopropyl-3-(5-methoxypyridin-3-yl)-3H-imidazo[4,5-b]pyridine-2-carboxamide]	13.6 µM
O=C(NC1CC1)c1nc2cccnc2n1-c1ccc(C(F)(F)F)cc1 [Example 92, N-Cyclopropyl-3-[4-(trifluoromethyl)phenyl]-3H-imidazo[4,5-b]pyridine-2-carboxamide]	3.11 µM
Cc1cccc(-n2c(C(=O)NC3CC3)nc3cccnc32)c1 [Example 70, N-Cyclopropyl-3-(3-methylphenyl)-3H-imidazo[4,5-b]pyridine-2-carboxamide]	0.421 µM
COc1cc(-n2c(C(=O)NC3CC3)nc3cccnc32)ccc1F [Example 55, N-Cyclopropyl-3-(4-fluoro-3-methoxyphenyl)-3H-imidazo[4,5-b]pyridine-2-carboxamide]	0.304 µM
Cc1ccc(F)cc1-n1c(C(=O)NC2CC2)nc2cccnc21 [Example 44, N-Cyclopropyl-3-(5-fluoro-2-methylphenyl)-3H-imidazo[4,5-b]pyridine-2-carboxamide]	1.66 µM
O=C(c1nc2cccnc2n1-c1cc(F)c(Cl)cc1F)N1CCC1 [Example 12, Azetidin-1-yl[3-(4-chloro-2,5-difluorophenyl)-3H-imidazo[4,5-b]pyridin-2-yl]methanone, trifluoroacetate salt]	0.0994 µM
O=C(NC1CC1)c1nc2cccnc2n1-c1cc(F)c(F)c(F)c1 [Example 30, N-Cyclopropyl-3-(3,4,5-trifluorophenyl)-3H-imidazo[4,5-b]pyridine-2-carboxamide, trifluoroacetate salt]	0.00577 µM
O=C(c1nc2cccnc2n1-c1ccc(Cl)cc1F)N1CCC1 [Example 22, Azetidin-1-yl[3-(4-chloro-2-fluorophenyl)-3H-imidazo[4,5-b]pyridin-2-yl]methanone]	0.273 µM
COc1cc(-n2c(C(=O)NC3CC3)nc3cccnc32)ccc1C [Example 50, N-Cyclopropyl-3-(3-methoxy-4-methylphenyl)-3H-imidazo[4,5-b]pyridine-2-carboxamide]	0.339 µM
O=C(NC1CC1)c1nc2cccnc2n1-c1ccc2ncccc2c1 [Example 80, N-Cyclopropyl-3-(quinolin-6-yl)-3H-imidazo[4,5-b]pyridine-2-carboxamide, trifluoroacetate salt]	1.47 µM
O=C(c1nc2cccnc2n1-c1ccc(Cl)cc1F)N1CC(F)C1 [Example 25, [3-(4-Chloro-2-fluorophenyl)-3H-imidazo[4,5-b]pyridin-2-yl](3-fluoroazetidin-1-yl)methanone]	0.91 µM
N#Cc1cccc(-n2c(C(=O)NC3CC3)nc3cccnc32)c1 [Example 53, 3-(3-Cyanophenyl)-N-cyclopropyl-3H-imidazo[4,5-b]pyridine-2-carboxamide]	0.287 µM
O=C(NC1CC1)c1nc2cccnc2n1-c1ccc2c(c1)CCC2 [Example 64, N-Cyclopropyl-3-(2,3-dihydro-1H-inden-5-yl)-3H-imidazo[4,5-b]pyridine-2-carboxamide]	0.206 µM
O=C(NC1CC1)c1nc2cccnc2n1-c1ccc2c(c1)COC2 [Example 61, N-Cyclopropyl-3-(1,3-dihydro-2-benzofuran-5-yl)-3H-imidazo[4,5-b]pyridine-2-carboxamide]	1.58 µM
O=C(NC1CC1)c1nc2cccnc2n1-c1ccnc(C(F)(F)F)c1 [Example 82, N-Cyclopropyl-3-[2-(trifluoromethyl)pyridin-4-yl]-3H-imidazo[4,5-b]pyridine-2-carboxamide]	6.07 µM
